Values of other authors as cited in patent US10907142B2, “Oligosaccharides comprising an aminooxy group and conjugates thereof” (Genzyme Corporation, priority 2007, dated 2021).

Tested on: skeletal and cardiac muscle glycogen
Conditions: murine model of Pompe disease; compared with recombinant human GAA; conjugate prepared by the method of U.S. Pat. No. 7,001,994

conjugate of the lysosomal enzyme acid α-glucosidase (GAA) with a a bis-M6P oligosaccharide: GAA coupled with a bis-M6P oligosaccharide by the method of U.S. Pat. No. 7,001,994
reducing skeletal and cardiac muscle glycogen: more effective in reducing skeletal and cardiac muscle glycogen than recombinant human GAA
